{"source": "patent US20080181848A1", "about": "(priority 2004, published 2008)", "key": {"[1]": {"target": "T1, D2 receptors in striatum (Rattus norvegicus, UniProt P61169)", "T1 construct": "from tissue; host or cells: striatum of Sprague-Dawley rats (in vivo labelling)", "T1 sequence (P61169 whole entry)": "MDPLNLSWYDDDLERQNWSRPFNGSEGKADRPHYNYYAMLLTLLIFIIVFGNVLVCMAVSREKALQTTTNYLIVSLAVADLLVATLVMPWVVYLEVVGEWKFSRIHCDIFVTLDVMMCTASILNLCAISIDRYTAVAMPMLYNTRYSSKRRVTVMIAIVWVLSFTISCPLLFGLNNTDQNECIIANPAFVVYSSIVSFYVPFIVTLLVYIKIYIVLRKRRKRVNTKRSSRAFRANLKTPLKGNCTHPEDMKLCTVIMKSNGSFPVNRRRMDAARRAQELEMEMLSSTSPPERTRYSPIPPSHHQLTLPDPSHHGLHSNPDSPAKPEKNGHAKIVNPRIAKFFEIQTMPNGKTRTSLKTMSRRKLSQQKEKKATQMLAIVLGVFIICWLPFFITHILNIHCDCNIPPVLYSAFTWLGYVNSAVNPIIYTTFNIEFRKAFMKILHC", "test": "Binding of intravenously injected radioligand in rat striatum, alone and co-injected with NPA (Examples 2 and 3)", "type": "in vivo, Sprague-Dawley rats", "text": "In describing and validating the method of the present invention using rats instead of humans, there are certain considerations that should be noted. For example, each rat is not imaged, but is guillotined, and the striatum removed in order to measure the radioactivity in DPM/mg tissue, where DPM represents disintegrations per minute.\nSprague-Dawley rats (275-300 g) were restrained in transparent polystyrene cages. The tail vein was warmed in warm water."}, "[2]": {"target": "D1 receptor (Homo sapiens, UniProt P21728)", "sequence (P21728 whole entry)": "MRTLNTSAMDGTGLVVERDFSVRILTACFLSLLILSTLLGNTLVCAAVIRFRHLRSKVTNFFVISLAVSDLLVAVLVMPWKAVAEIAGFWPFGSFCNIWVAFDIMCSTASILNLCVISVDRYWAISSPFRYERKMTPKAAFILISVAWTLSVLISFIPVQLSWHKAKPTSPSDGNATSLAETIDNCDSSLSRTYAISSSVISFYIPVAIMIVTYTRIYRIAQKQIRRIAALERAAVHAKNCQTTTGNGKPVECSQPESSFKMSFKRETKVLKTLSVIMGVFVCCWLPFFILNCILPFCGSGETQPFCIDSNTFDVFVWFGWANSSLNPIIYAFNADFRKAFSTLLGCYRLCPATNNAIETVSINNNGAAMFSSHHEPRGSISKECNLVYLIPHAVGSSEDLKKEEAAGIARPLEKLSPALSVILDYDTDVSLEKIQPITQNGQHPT", "conditions": "D1^High state; read-out: dissociation constant for the high-affinity state of the D1 receptor; cited from earlier work"}, "[3]": {"conditions": "rat striatum, radioligand co-injected i.v. with NPA 25 μg/kg"}, "[4]": {"conditions": "25 μg/Kg NPA co-injected i.v., rats, n=6"}}, "note": "Structures can show the parent of a compound that is named as a salt.", "data": [{"compound": "CCN1CCC[C@H]1CNC(=O)c1c(O)c(Cl)cc(Cl)c1OC", "note": "(racemic) [[^3H]Raclopride]", "values": [{"measurement": "Control", "setting": "[1]; rat striatum, 30 min after i.v. 0.1 nmol radioligand, no NPA", "result": 2.8, "unit": "pmol/g"}, {"measurement": "Control DPM/mg (total binding in striatum)", "setting": "[1]; rat striatum, 30 min after i.v. 0.1 nmol radioligand, no NPA, n=6", "result": 37.9, "unit": "DPM/mg"}, {"measurement": "pmol/g Displaced by NPA", "setting": "[1]; rat striatum, NPA 25 μg/kg co-injected", "result": 1.09, "unit": "pmol/g"}, {"measurement": "With NPA", "setting": "[1]; [3]", "result": 1.71, "unit": "pmol/g"}, {"measurement": "With NPA DPM/mg", "setting": "[1]; [3]", "result": 23.13, "unit": "DPM/mg"}]}, {"compound": "CCCN1CCOC2c3cc(O)ccc3CCC21", "note": "(single isomer, unassigned; (+)) [(+)PHNO, (+)-4-propyl-9-hydroxy-2,3,4a,5,6,10b-hexahydro-4H-naphth[1,2b][1,4]oxazine HCl]", "values": [{"measurement": "Kd", "setting": "[2]", "result": 80, "unit": "nM"}]}, {"compound": "CCCN1CCc2cccc3c2[C@H]1Cc1ccc(O)c(O)c1-3", "note": "[NPA, N-propyl-norapomorphine]", "values": [{"measurement": "binding of radioactive raclopride, level of the control value", "setting": "[1]; 25 μg/Kg NPA co-injected i.v., rats, mean ±s.e., n=6, P=0.0004 vs (+)PHNO", "result": "61%±2.9 % of the control value"}, {"measurement": "binding of radioactive (+)PHNO, level of the control value", "setting": "[1]; [4]", "result": "46 % of the control value"}, {"measurement": "inhibition of the binding of radioactive raclopride", "setting": "[1]; [4]", "result": 39, "unit": "%"}, {"measurement": "inhibition of the binding of radioactive (+)PHNO", "setting": "[1]; 25 μg/Kg NPA co-injected i.v., rats, n=6, representative experiment", "result": 54, "unit": "%"}, {"measurement": "inhibition of the D2^High receptors", "setting": "[1]; normal rats, NPA 25 μg/kg i.v. co-injected with radioactive (+)PHNO", "result": 53, "unit": "%"}]}]}
